Peptide text beside a SMILES is read from it. * marks the point of attachment. Palmitoyl = CCCCCCCCCCCCCCCC(=O)*; DO3A:Gd = Gd-chelated DO3A
How the values were obtained:
Type in all cases: physicochemical
[1] = pH titration of peptide amphiphiles; conditions: aqueous solution of 150 mM NaCl and 2.2 mM CaCl2, glutamic acid residues, 10 μM PA
Experimental: The titration measurements were conducted on 10 μM peptide amphiphile solutions prepared in 150 mM NaCl and 2.2 mM CaCl2 using milli-Q water. The solution was heated at 80° C. for 30 minutes followed by slow cooling at room temperature. The pH of the solution was then adjusted to 4 using HCl. Finally, an Accumet XL15 pH meter (Fisher Scientific) coupled with an Orion Ross Ultra semi-micro electrode (8103BNUWP, Thermo Scientific) was used to track changes in pH of the solution as NaOH solution was added in small increments. pKa values were obtained from the second inflection points of the first derivative plots of the titration data. The first transition corresponds to neutralization of excess HCl. The calculated pKas reflect the average pKa for all four glutamic acids.

[2] = Transmission electron microscopy (TEM) of self-assembled morphology; conditions: 0.5 mM PA
Experimental: At a pH of 7.75, HCl was added until the pH was 6.1, and the resulting β-sheet CD spectrum was collected within three minutes. An appropriate amount of NaOH was then added to reverse the pH back to 7.70, and random coil behavior was observed again. […] Conventional transmission electron microscopy (TEM) imaging was used to determine the morphology of 10 μM of PA 1, at pH values of 6 and 8 (FIG. 6A, 6B). The TEM grids were prepared within three minutes of pH adjustment. […] This nanofiber diameter corresponds roughly to twice the molecular length based on MM+ molecular simulations, corresponding approximately to the expected diameter of cylindrical fibers consisting of hydrophobically collapsed β-sheets.
TEM images were obtained using solutions of either 10 μM or 0.5 mM peptide amphiphile concentration, as well as 150 mM NaCl and 2.2 mM CaCl2 in Milli-Q water. The solutions were first heated at 80° C. for 30 minutes in a water bath and then gradually cooled to room temperature. This was followed by pH adjustment using either HCl or NaOH. 5 μL of this solution was pipetted onto a Carbon Formvar grid (Electron Microscopy Sciences) and allowed to sit for 2 minutes before being wicked dry using filter paper. For the 10 μM experiments that were performed to determine the time dependence of nanofiber formation, solutions were dropcast onto the grid within three minutes of pH adjustment. […]

[3] = Circular dichroism (CD) spectroscopy of pH-triggered self-assembly transition; conditions: for each concentration (10 μM, 500 μM)
Experimental: The target PA concentration (10 μM) was below the detectable limit of conventional techniques to determine the morphology such as cryoTEM and small-angle X-ray scattering. Consequently, circular dichroism (CD) spectroscopy was initially used to characterize the morphology of these PAs at various pH values. PA 1 was the first molecule synthesized that underwent a self-assembly transition in the desired pH range of 6.6-7.4 at 10 μM PA concentration, in 150 mM NaCl and 2.2 mM CaCl2 (FIG. 2A) (Goldberger, J. E., et al. Angew. Chem. Int. Ed. 2011 50:6292-95). […] The transition pH from random coil to β-sheet occurred at a pH of 6.6. The transition pH was defined as the value at which the ellipticity at 205 nm rises to zero, followed by the appearance of a minimum at 218-220 nm.
Measurements were done on a Jasco-815 Circular Dichroism spectrometer using 1 cm path length quartz cuvettes. […] Double deionized Milli-Q water was used for preparing all solutions. The solutions were then heated at 80° C. for 30 minutes in a water bath and gradually cooled to room temperature. […]

Compound	pKa [1]	other results
CCCCCCCCCCCCCCCC(=O)N[C@H](C(=O)N[C@@H](C)C(=O)N[C@@H](C)C(=O)N[C@@H](C)C(=O)N[C@@H](CCC(=O)O)C(=O)N[C@@H](CCC(=O)O)C(=O)N[C@@H](CCC(=O)O)C(=O)N[C@@H](CCC(=O)O)C(N)=O)[C@@H](C)CC [PA 1] (Palmitoyl-IAAAEEEE-NH2)	4.66 ± 0.1	–
CCCCCCCCCCCCCCCC(=O)N[C@@H](Cc1ccccc1)C(=O)N[C@@H](C)C(=O)N[C@@H](C)C(=O)N[C@@H](C)C(=O)N[C@@H](CCC(=O)O)C(=O)N[C@@H](CCC(=O)O)C(=O)N[C@@H](CCC(=O)O)C(=O)N[C@@H](CCC(=O)O)C(N)=O [PA 2] (Palmitoyl-FAAAEEEE-NH2)	4.94 ± 0.09	–
CCCCCCCCCCCCCCCC(=O)N[C@H](C(=O)N[C@@H](C)C(=O)N[C@@H](C)C(=O)N[C@@H](C)C(=O)N[C@@H](CCC(=O)O)C(=O)N[C@@H](CCC(=O)O)C(=O)N[C@@H](CCC(=O)O)C(=O)N[C@@H](CCC(=O)O)C(N)=O)C(C)C [PA 3] (Palmitoyl-VAAAEEEE-NH2)	4.86 ± 0.11	–
CCCCCCCCCCCCCCCC(=O)N[C@@H](Cc1ccc(O)cc1)C(=O)N[C@@H](C)C(=O)N[C@@H](C)C(=O)N[C@@H](C)C(=O)N[C@@H](CCC(=O)O)C(=O)N[C@@H](CCC(=O)O)C(=O)N[C@@H](CCC(=O)O)C(=O)N[C@@H](CCC(=O)O)C(N)=O [PA 4] (Palmitoyl-YAAAEEEE-NH2)	4.7 ± 0.1	–
Palmitoyl-IAAAEEEEK(DO3A:Gd)-NH2 (also: Gd complex of DO3A) [PA 5]	–	diameter of nanofibers ([2]; pH 4): 11.9±1.6 nm; diameter of spherical micelles ([2]; pH 10): 10.0±1.2 nm
Palmitoyl-VAAAEEEEK(DO3A:Gd)-NH2 (also: Gd complex of DO3A) [PA 6]	–	nanofiber to micelle transition pH, lower than PA 5 by [3]: 0.4 units
